Results from patent US20250235543A1, “MODIFIED PROTEINS AND PROTEIN DEGRADERS” (Cullgen (Shanghai), Inc., priority 2021, published 2025).

System: P300/CBP
Assay: P300/CBP cellular protein degradation
Format: cell-based
Protocol: Cultured cells were washed with cold PBS once and lysed in cold RIPA buffer supplemented with protease inhibitors and phosphatase inhibitors (Beyotime Biotechnology). The solutions were then incubated at 4° C. for 30 min with gentle agitation to fully lysed cells. Cell lysates were centrifuged at 13,000 rpm for 10 min at 4° C. and pellets were discarded. Total protein concentrations in the lysates were determined following BCA assays (Beyotime Biotechnology). Cell lysates were mixed with Laemmli loading buffer and heated at 99° C. for 5 min. Proteins were resolved on SDS-PAGE and visualized using Western ECL Substrate kits on a ChemiDoc MP Imaging system (Bio-Rad). Protein bands were quantitated using the Image Lab software provided by Bio-Rad.

Structure (SMILES) | P300/CBP Degradation (100 nM)
CC(=O)N1CCc2c(c(N3CCCc4cc(-c5cnn(C)c5)c(C(F)F)cc43)nn2C2CCN(CC(=O)NCCCCCCNc3ccc(C(=O)Nc4ncc(C)s4)c(C)c3)CC2)C1 [CPD-193, 4-((6-(2-(4-(A-Acetyl-3-(7-(difluoromethyl)-6-(1-methyl-1H-pyrazol-4-yl)-3,4-dihydroquinolin-1(2H)-yl)-4,5,6,7-tetrahydro-1H-pyrazolo[4,3-c]pyridin-1-yl)piperidin-1-yl)acetamido)hexyl)amino)-2-methyl-N-(5-methylthiazol-2-yl)benzamide] | D (degradation activity < 30%)
CC(=O)N1CCc2c(c(N3CCCc4cc(-c5cnn(C)c5)c(C(F)F)cc43)nn2C2CCN(CC(=O)NCCCCCCCNc3ccc(C(=O)Nc4ncc(C)s4)c(C)c3)CC2)C1 [CPD-194, 4-((7-(2-(4-(5-Acetyl-3-(7-(difluoromethyl)-6-(1-methyl-1H-pyrazol-4-yl)-3,4-dihydroquinolin-1(2H)-yl)-4,5,6,7-tetrahydro-1H-pyrazolo[4,3-c]pyridin-1-yl)piperidin-1-yl)acetamido)heptyl)amino)-2-methyl-N-(5-methylthiazol-2-yl)benzamide] | D (degradation activity < 30%)
CC(=O)N1CCc2c(c(N3CCCc4cc(-c5cnn(C)c5)c(C(F)F)cc43)nn2C2CCN(CC(=O)NCCCCCCCCNc3ccc(C(=O)Nc4ncc(C)s4)c(C)c3)CC2)C1 [CPD-195, 4-((8-(2-(4-(5-Acetyl-3-(7-(difluoromethyl)-6-(1-methyl-1H-pyrazol-4-yl)-3,4-dihydroquinolin-1(2H)-yl)-4,5,6,7-tetrahydro-1H-pyrazolo[4,3-c]pyridin-1-yl)piperidin-1-yl)acetamido)octyl)amino)-2-methyl-N-(5-methylthiazol-2-yl)benzamide] | D (degradation activity < 30%)
CC(=O)N1CCc2c(c(N3CCCc4cc(-c5cnn(C)c5)c(C(F)F)cc43)nn2C2CCN(CC(=O)NCCCCCCCCCNc3ccc(C(=O)Nc4ncc(C)s4)c(C)c3)CC2)C1 [CPD-196, 4-((9-(2-(4-(5-Acetyl-3-(7-(difluoromethyl)-6-(1-methyl-1H-pyrazol-4-yl)-3,4-dihydroquinolin-1(2H)-yl)-4,5,6,7-tetrahydro-1H-pyrazolo[4,3-c]pyridin-1-yl)piperidin-1-yl)acetamido)nonyl)amino)-2-methyl-N-(5-methylthiazol-2-yl)benzamide] | D (degradation activity < 30%)
CC(=O)N1CCc2c(c(N3CCCc4cc(-c5cnn(C)c5)c(C(F)F)cc43)nn2C2CCN(CC(=O)NCCOCCNc3ccc(C(=O)Nc4ncc(C)s4)c(C)c3)CC2)C1 [CPD-197, 4-((2-(2-(2-(4-(5-Acetyl-3-(7-(difluoromethyl)-6-(1-methyl-1H-pyrazol-4-yl)-3,4-dihydroquinolin-1(2H)-yl)-4,5,6,7-tetrahydro-1H-pyrazolo[4,3-c]pyridin-1-yl)piperidin-1-yl)acetamido)ethoxy)ethyl)amino)-2-methyl-N-(5-methylthiazol-2-yl)benzamide] | D (degradation activity < 30%)
CC(=O)N1CCc2c(c(N3CCCc4cc(-c5cnn(C)c5)c(C(F)F)cc43)nn2C2CCN(CC(=O)NCCOCCOCCNc3ccc(C(=O)Nc4ncc(C)s4)c(C)c3)CC2)C1 [CPD-198, 4-((2-(2-(2-(2-(4-(5-Acetyl-3-(7-(difluoromethyl)-6-(1-methyl-1H-pyrazol-4-yl)-3,4-dihydroquinolin-1(2H)-yl)-4,5,6,7-tetrahydro-1H-pyrazolo[4,3-c]pyridin-1-yl)piperidin-1-yl)acetamido)ethoxy)ethoxy)ethyl)amino)-2-methyl-N-(5-methylthiazol-2-yl)benzamide] | D (degradation activity < 30%)
CC(=O)N1CCc2c(c(N3CCCc4cc(-c5cnn(C)c5)c(C(F)F)cc43)nn2C2CCN(C(=O)CCC(=O)Nc3ccccc3C(=O)Nc3nc(C)c([N+](=O)[O-])s3)CC2)C1 [CPD-199, 2-(4-(4-(5-Acetyl-3-(7-(difluoromethyl)-6-(1-methyl-1H-pyrazol-4-yl)-3,4-dihydroquinolin-1(2H)-yl)-4,5,6,7-tetrahydro-1H-pyrazolo[4,3-c]pyridin-1-yl)piperidin-1-yl)-4-oxobutanamido)-N-(4-methyl-5-nitrothiazol-2-yl)benzamide] | D (degradation activity < 30%)
CC(=O)N1CCc2c(c(N3CCCc4cc(-c5cnn(C)c5)c(C(F)F)cc43)nn2C2CCN(C(=O)CCCC(=O)Nc3ccccc3C(=O)Nc3nc(C)c([N+](=O)[O-])s3)CC2)C1 [CPD-200, 2-(5-(4-(5-Acetyl-3-(7-(difluoromethyl)-6-(1-methyl-1H-pyrazol-4-yl)-3,4-dihydroquinolin-1(2H)-yl)-4,5,6,7-tetrahydro-1H-pyrazolo[4,3-c]pyridin-1-yl)piperidin-1-yl)-5-oxopentanamido)-N-(4-methyl-5-nitrothiazol-2-yl)benzamide] | D (degradation activity < 30%)
CC(=O)N1CCc2c(c(N3CCCc4cc(-c5cnn(C)c5)c(C(F)F)cc43)nn2C2CCN(C(=O)CCCCC(=O)Nc3ccccc3C(=O)Nc3nc(C)c([N+](=O)[O-])s3)CC2)C1 [CPD-201, 2-(6-(4-(5-Acetyl-3-(7-(difluoromethyl)-6-(1-methyl-1H-pyrazol-4-yl)-3,4-dihydroquinolin-1(2H)-yl)-4,5,6,7-tetrahydro-1H-pyrazolo[4,3-c]pyridin-1-yl)piperidin-1-yl)-6-oxohexanamido)-N-(4-methyl-5-nitrothiazol-2-yl)benzamide] | D (degradation activity < 30%)
CC(=O)N1CCc2c(c(N3CCCc4cc(-c5cnn(C)c5)c(C(F)F)cc43)nn2C2CCN(C(=O)CCCCCC(=O)Nc3ccccc3C(=O)Nc3nc(C)c([N+](=O)[O-])s3)CC2)C1 [CPD-202, 2-(7-(4-(5-Acetyl-3-(7-(difluoromethyl)-6-(1-methyl-1H-pyrazol-4-yl)-3,4-dihydroquinolin-1(2H)-yl)-4,5,6,7-tetrahydro-1H-pyrazolo[4,3-c]pyridin-1-yl)piperidin-1-yl)-7-oxoheptanamido)-N-(4-methyl-5-nitrothiazol-2-yl)benzamide] | D (degradation activity < 30%)
CC(=O)N1CCc2c(c(N3CCCc4cc(-c5cnn(C)c5)c(C(F)F)cc43)nn2C2CCN(C(=O)CCCCCCC(=O)Nc3ccccc3C(=O)Nc3nc(C)c([N+](=O)[O-])s3)CC2)C1 [CPD-203, 2-(8-(4-(5-Acetyl-3-(7-(difluoromethyl)-6-(1-methyl-1H-pyrazol-4-yl)-3,4-dihydroquinolin-1(2H)-yl)-4,5,6,7-tetrahydro-1H-pyrazolo[4,3-c]pyridin-1-yl)piperidin-1-yl)-8-oxooctanamido)-N-(4-methyl-5-nitrothiazol-2-yl)benzamide] | D (degradation activity < 30%)
CC(=O)N1CCc2c(c(N3CCCc4cc(-c5cnn(C)c5)c(C(F)F)cc43)nn2C2CCN(C(=O)CCCCCCCC(=O)Nc3ccccc3C(=O)Nc3nc(C)c([N+](=O)[O-])s3)CC2)C1 [CPD-204, 2-(9-(4-(5-Acetyl-3-(7-(difluoromethyl)-6-(1-methyl-1H-pyrazol-4-yl)-3,4-dihydroquinolin-1(2H)-yl)-4,5,6,7-tetrahydro-1H-pyrazolo[4,3-c]pyridin-1-yl)piperidin-1-yl)-9-oxononanamido)-N-(4-methyl-5-nitrothiazol-2-yl)benzamide] | D (degradation activity < 30%)
CC(=O)N1CCc2c(c(N3CCCc4cc(-c5cnn(C)c5)c(C(F)F)cc43)nn2C2CCN(C(=O)CCCCCCCCC(=O)Nc3ccccc3C(=O)Nc3nc(C)c([N+](=O)[O-])s3)CC2)C1 [CPD-205, 2-(10-(4-(5-Acetyl-3-(7-(difluoromethyl)-6-(1-methyl-1H-pyrazol-4-yl)-3,4-dihydroquinolin-1(2H)-yl)-4,5,6,7-tetrahydro-1H-pyrazolo[4,3-c]pyridin-1-yl)piperidin-1-yl)-10-oxodecanamido)-N-(4-methyl-5-nitrothiazol-2-yl)benzamide] | D (degradation activity < 30%)
CC(=O)N1CCc2c(c(N3CCCc4cc(-c5cnn(C)c5)c(C(F)F)cc43)nn2C2CCN(C(=O)CCCCCCCCCC(=O)Nc3ccccc3C(=O)Nc3nc(C)c([N+](=O)[O-])s3)CC2)C1 [CPD-206, 2-(11-(4-(5-Acetyl-3-(7-(difluoromethyl)-6-(1-methyl-1H-pyrazol-4-yl)-3,4-dihydroquinolin-1(2H)-yl)-4,5,6,7-tetrahydro-1H-pyrazolo[4,3-c]pyridin-1-yl)piperidin-1-yl)-11-oxoundecanamido)-N-(4-methyl-5-nitrothiazol-2-yl)benzamide] | D (degradation activity < 30%)
CC(=O)N1CCc2c(c(N3CCCc4cc(-c5cnn(C)c5)c(C(F)F)cc43)nn2C2CCN(C(=O)CCCCCCCCCCC(=O)Nc3ccccc3C(=O)Nc3nc(C)c([N+](=O)[O-])s3)CC2)C1 [CPD-207, 2-(12-(4-(5-Acetyl-3-(7-(difluoromethyl)-6-(1-methyl-1H-pyrazol-4-yl)-3,4-dihydroquinolin-1(2H)-yl)-4,5,6,7-tetrahydro-1H-pyrazolo[4,3-c]pyridin-1-yl)piperidin-1-yl)-12-oxododecanamido)-N-(4-methyl-5-nitrothiazol-2-yl)benzamide] | D (degradation activity < 30%)
CC(=O)N1CCc2c(c(N3CCCc4cc(-c5cnn(C)c5)c(C(F)F)cc43)nn2C2CCN(C(=O)CCCCCCCCCCCC(=O)Nc3ccccc3C(=O)Nc3nc(C)c([N+](=O)[O-])s3)CC2)C1 [CPD-208, 2-(13-(4-(5-Acetyl-3-(7-(difluoromethyl)-6-(1-methyl-1H-pyrazol-4-yl)-3,4-dihydroquinolin-1(2H)-yl)-4,5,6,7-tetrahydro-1H-pyrazolo[4,3-c]pyridin-1-yl)piperidin-1-yl)-13-oxotridecanamido)-N-(4-methyl-5-nitrothiazol-2-yl)benzamide] | D (degradation activity < 30%)
